Measurements: patent US12263143B2, “Ionic channel modulation as a method for treating tumors through inflammasome activation” (priority 2019, dated 2025)

Columns and labels:
[1] = test system: NLRP3 inflammasome; experiment: NLRP3 inflammasome activation in LPS/ATP-treated BMDCs, IL-1β in culture supernatant by ELISA; format: cell-based; conditions: mouse BMDCs, LPS 0.25 μg/ml for 3 hr and ATP 0.5 mM, vs vehicle control (DMSO)
Experimental: (§1) Triggering inflammasome activation: Mouse bone marrow-derived dendritic cells (BMDCs) are treated with LPS and ATP to trigger NLRP3 inflammasome activation in the presence of vehicle control (DMSO) or the indicated ion channels modulators. IL-1β is measured in the culture supernatant by ELISA. • [IL-1β was used to measure the degree of inflammasome activation] • b. Inhibiting TORID-dependent ion flux: CHO-7 cells were transfected with TORID-1 and TORID-2 plasmids. Cells were then loaded with the Na^+-sensitive fluorescent dye-ANG-2-. ANG-2 mean fluorescence intensity (MFI) subtracting in each condition the MFI obtained in Na+-free buffer substituted with NMDG+ is shown. Cells left untreated or treated with the indicated drugs were studied • [MFI was used to measure the degree of inhibition of TORID-dependent ion flux.
(§2) IL-1β was measured in the culture supernatant by ELISA. • B CHO-7 cells were transfected with Tmem176b (TORID-1) and Tmem176a (TORID-2)-mcherry-coding pSecTag2B plasmids. Cells were then loaded with the Na^+-sensitive fluorescent dye Asante NaTRIUM Green 2 (ANG-2). ANG-2 mean fluorescence intensity (MFI) subtracting in each condition the MFI obtained in Na^+-free buffer substituted with NMDG^+ is shown. Cells left untreated or treated with the indicated drugs were studied.

[2] = test system: Tmem176b (TORID-1) and Tmem176a (TORID-2); experiment: TORID-dependent ion flux, ANG-2 Na+-sensitive dye MFI in transfected CHO-7 cells; format: cell-based; conditions: CHO-7 cells transfected with Tmem176b and Tmem176a-mcherry pSecTag2B plasmids, vs untreated cells
Experimental: as §1, §2

[3] = target: TORID (Homo sapiens, UniProt Q3YBM2); conditions: prior application WO2018203262A1; cited from earlier work
[4] = test system: inflammasome (NLRP3); conditions: prior application WO2018203262A1; cited from earlier work
[5] = test system: two tumor types; conditions: anti-PD-1 resistant mice, WO2018203262A1; cited from earlier work

Sequence of TORID (Q3YBM2 whole entry): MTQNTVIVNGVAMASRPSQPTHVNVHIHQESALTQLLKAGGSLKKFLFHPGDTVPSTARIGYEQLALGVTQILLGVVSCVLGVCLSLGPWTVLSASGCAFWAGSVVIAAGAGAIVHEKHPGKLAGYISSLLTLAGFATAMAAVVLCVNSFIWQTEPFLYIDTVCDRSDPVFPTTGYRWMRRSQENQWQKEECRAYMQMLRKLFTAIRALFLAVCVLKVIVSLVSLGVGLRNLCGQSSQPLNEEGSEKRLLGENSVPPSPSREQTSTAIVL

| SMILES | NLRP3 inflammasome activation (IL-1β in culture supernatant by ELISA) [1] | TORID activity (ANG-2 MFI, Na+-free NMDG+ buffer MFI subtracted) [2] | TORID activity [3] | inflammasome (NLRP3) expression [4] | rate of survival [5] |
| --- | --- | --- | --- | --- | --- |
| CCN(CC)CC(=O)Nc1c(C)cccc1C [Lidocaine] | enhance NLRP3 inflammasome activation | inhibit TORID activity |  |  |  |
| CCN1C[C@]2(COC)[C@H](O)C[C@H](OC)[C@@]34[C@@H]5C[C@@]6(O)[C@H](OC(=O)c7ccccc7)[C@@H]5[C@@](OC(C)=O)([C@@H]([C@H](OC)[C@H]23)[C@@H]14)[C@@H](O)[C@@H]6OC [Aconitine] | enhance NLRP3 inflammasome activation | inhibit TORID activity |  |  |  |
| CCN(CC)CCNC(=O)c1ccc(N)cc1 [Procainamide] | enhance NLRP3 inflammasome activation | inhibit TORID activity |  |  |  |
| COC(=O)C1=C(C)NC(C)=C([N+](=O)[O-])C1c1ccccc1C(F)(F)F (single isomer, unassigned; (+)) [(+)BAY K8644, Methyl 2,6-dimethyl-5-nitro-4-[2-(trifluoromethyl)phenyl]-1,4-dihydropyridine-3-carboxylate] |  |  | inhibited TORID activity | increased inflammasome (NLRP3) expression | higher rate of survival |
